From the supplement of paper PMC10883282
± gives the standard deviation of the averaged measurements.

System: SW1353
Experiment: relative viability vs DMSO control (72 h) (fraction); higher = more viable cells
How it was run: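 Sarcoma cell lines were plated in 384 wells to reach 80–90% confluence, treated after 24 h with 2.5 µl of serially diluted compound and held 72 h at 37 °C, 5% CO2. Relative viability was taken as percent growth from ATPLite readings, averaged over up to triplicate wells. The values were rescaled so that 1 marks full and 0 marks none.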

Row | SMILES | relative viability (0.00017 µM) | relative viability (0.00051 µM) | relative viability (0.00152 µM) | relative viability (0.00457 µM) | relative viability (0.01372 µM) | relative viability (0.04115 µM) | relative viability (0.1235 µM) | relative viability (0.3704 µM) | relative viability (1.111 µM) | relative viability (3.333 µM) | relative viability (10 µM)
1 | COc1cc2/c(=N/c3ccc(Br)cc3F)nc[nH]c2cc1OCC1CCN(C)CC1 [Vandetanib] | 0.952 ± 0.029 | 0.962 ± 0.017 | 0.941 ± 0.04 | 0.988 ± 0.018 | 0.976 ± 0.029 | 0.952 ± 0.032 | 0.957 ± 0.045 | 0.9245 ± 0.0051 | 0.92 ± 0.013 | 0.558 ± 0.019 | 0.0143 ± 0.0022
2 | CCCS(=O)(=O)Nc1ccc(F)c(C(=O)c2c[nH]c3ncc(-c4ccc(Cl)cc4)cc23)c1F [Vemurafenib] | 0.958 ± 0.033 | 0.979 ± 0.055 | 0.965 ± 0.038 | 0.954 ± 0.052 | 1.01 ± 0.011 | 0.993 ± 0.022 | 0.949 ± 0.032 | 0.981 ± 0.031 | 0.925 ± 0.015 | 0.703 ± 0.024 | 0.567 ± 0.14
3 | C[C@@H](c1ccc2nccn2c1)n1nnc2ncc(-c3cnn(C)c3)nc21 [Volitinib] | 1.01 ± 0.033 | 1.01 ± 0.011 | 0.998 ± 0.028 | 1.02 ± 0.019 | 1.02 ± 0.044 | 1 ± 0.048 | 1.01 ± 0.045 | 0.976 ± 0.026 | 1.03 ± 0.016 | 0.987 ± 0.035 | 1.02 ± 0.023
4 | C=CC(=O)N1CCC([C@@H]2CCNc3c(C(N)=O)c(-c4ccc(Oc5ccccc5)cc4)nn32)CC1 [Zanubrutinib] | 1.07 ± 0.066 | 1.05 ± 0.048 | 1.04 ± 0.034 | 1.03 ± 0.038 | 1.03 ± 0.044 | 1.03 ± 0.044 | 1.02 ± 0.029 | 0.965 ± 0.034 | 0.917 ± 0.057 | 0.828 ± 0.041 | 0.657 ± 0.023
